# Experimental data published in a melting point compilation (Tetko et al.; mined from patent text by program, amines drawn as free bases though some values may be those of a salt).
row,SMILES,melting point
1,O=C(NCCc1ccccc1Cl)c1c(Cl)ccc2nc(N3CCC(C(=O)O)CC3)ccc12,250 to 253 °C
2,O=C1N[C@H](/C=C/c2ccccc2)[C@@H]1N1C(=O)c2ccccc2C1=O (relative stereo),168 to 170 °C
3,CCCCCCCCCCNC(=O)c1ccccc1[N+](=O)[O-],55 to 57 °C
4,COCCOc1cc(-c2ccccn2)nc(-c2ccccn2)c1,105 to 106 °C
5,O=c1c2c(Cc3ccc(OC(F)(F)F)cc3)n[nH]c2c2cccnc2n1-c1ccccc1,216 to 218 °C
6,Cc1ccc(S(=O)(=O)OCC2CCc3ccc4[nH]c(=O)[nH]c4c3O2)cc1 (centres undefined),205 °C
7,O=[N+]([O-])c1nccn1C1CCCO1 (centres undefined),91 °C
8,CN(C)C1CCc2c(c3ccccc3n2CCC(=O)O)C1 (centres undefined),106 to 108 °C
9,Cc1ccc2c(c1)[nH]c(=O)n2CCCN1CCC2(CC1)C(=O)NCN2c1ccccc1,256 °C
10,Cc1ccc(C2=CCNCC2)nc1,78 to 80 °C
11,O=C(O)CCc1ccc2c(c1)CCc1ccc(C(=O)O)cc1S2,233 to 235 °C
12,CCCCCCCCC1SC(=S)SC1CCCCCCCCO (centres undefined),40 to 47 °C
13,CC1=NN(CC2CC2)CC2=C3C1=NN(c1ccc(C(C)C)cc1Br)C(=O)N3CC2,89 to 90 °C
14,COc1ccc(C)cc1NC(=O)Nc1ccc(N2CCN(C(=O)Nc3ccccc3)CC2)cc1,221 °C
15,C/C=C/c1ccc2c(NCc3ccc(NC(=O)c4ccc(Cl)nc4)cc3)nc(N(C)C)nc2c1,185 °C
16,CC(=O)Nc1ccc(CNc2n[nH]c3ncnc(Nc4cccc(Cl)c4)c23)cc1,> 260 °C
17,CCCCCCCN(C[C@H]1CCCC[C@H]1CN(CCCCCCC)C(=O)Nc1ccc(N(C)C)cc1)C(=O)Nc1ccc(N(C)C)cc1,135 to 138 °C
18,C=CCn1cc(Cc2ccc(C(=O)O)cc2OC)c2cc(C=C(C)C(=O)NCCC)ccc21,84 to 90 °C
19,COC(=O)C(C)(C)Cc1cc2cc(OCc3ccc4ccccc4n3)ccc2[nH]1,131 to 132 °C
20,CON=C(C1=Nc2ccc(Cl)cc2C(c2ccccc2F)=NC1)[N+](=O)[O-],130 to 133 °C
21,Cc1cccc(N=C2NCCN2)c1,115 °C
22,Cc1cc(C)cc(NC(=O)NC2N=C(c3ccccc3)c3ccccc3N(C)C2=O)c1 (centres undefined),267 to 269 °C
23,CCCCOc1c(CN2C(=O)c3ccccc3C2=O)n(CC2CC2)c(=O)c2ccc(OCc3ccccc3)cc12,127 to 128 °C
24,COCCN1CCN(CCc2ccc(Nc3ncc4c(n3)-c3ccccc3C(c3ccc(Cl)c(Cl)c3)C4)cc2)CC1 (centres undefined),121 to 122 °C
25,CCCCn1c(=O)c2c(ncn2S(=O)(=O)c2cccc([N+](=O)[O-])c2)n(CCCC)c1=O,178 to 179 °C
26,CC(C)(N)CNC(=O)CNC(=O)CNC(=O)Cc1ccccc1,209 to 210 °C
27,COC(=O)C=C1CC(NC(=O)OC(C)(C)C)C1 (centres undefined),79 to 82 °C

row,SMILES,melting point
1,CN(C)CCCN(C=O)C1CCC2C3CCc4ccccc4C3CCC21C (centres undefined),123 to 125 °C
2,CC(=O)OCC(=O)N(C)C,52 to 53 °C
3,N#Cc1cc([N+](=O)[O-])ccc1NC(=O)c1cccc([N+](=O)[O-])c1,205 to 206 °C
4,O=C(OCC1CCC1)c1ncc2n1-c1cccc(Br)c1C(=O)N1CCC[C@@H]21,170 to 172 °C
5,CC(C)(C)c1csc(NC(=O)c2ccn3c(=O)c(/C=C/C(=O)O)c(N4CCC(OC(=O)NCCO)CC4)nc3c2)n1,231 to 234 °C
6,O=C(O)[C@@H]1CCCN1C(=O)c1cc2cc3c(cc2c2cc(OCc4ccccc4)ccc12)OCO3,221 to 223 °C
7,CC(C)[C@H](OCc1c(F)cccc1F)[C@H]1[C@H]([N+](=O)[O-])[C@H](c2ccccc2)N[C@@H]1C(=O)NCC(=O)O,80 to 81 °C
8,CCCCS(=O)(=O)NC(=O)CCc1cc(OC(C)C)nn1Cc1ccc(Cl)cc1Cl,133 to 134 °C
9,O=C(c1ccc(Cl)cc1)c1cccc(CBr)c1,123 to 125 °C
10,O=C1C2=CSCCN2C(=O)N1c1ccc(Cl)cc1,155 to 158 °C
11,O=S1(=O)c2cccc3c(Cl)cc(Cl)c(c23)N1CCCN1CC=C(c2ccccc2)CC1,126 °C
12,O=c1[nH][nH]c(C(F)(F)F)c1Cc1ccc2c(c1)OCO2,196 to 197 °C
13,COc1ccc2c(c1)C(CCNC(C)=O)CN(Cc1ccccc1)C2 (centres undefined),123 to 125 °C
14,CCc1cn(CC)cc(-c2cccc(C(F)(F)F)c2)c1=O,67 to 70 °C
15,CC1(C)CC(N(CCO)S(C)(=O)=O)c2cc(OCc3ccccc3)ccc2O1 (centres undefined),78 to 80 °C
16,CC(Sc1cc(C(C)(C)C)c(O)c(C(C)(C)C)c1)C(=O)O (centres undefined),110 to 113 °C
17,CC(=O)N1CCC(CCCCC(=O)c2ccc(F)cc2)CC1,98 to 100 °C
18,CC(=O)OC(c1ccc(C(F)(F)F)cc1[N+](=O)[O-])c1cnoc1C1CC1 (centres undefined),82 °C
19,O=C(OC#CCc1ccccc1)C1CN=CNC1 (centres undefined),117 to 118 °C
20,O=C(O)C=CC1CC1(c1cccc(C(F)(F)F)c1)c1cccc(C(F)(F)F)c1 (centres undefined),147 to 148 °C
21,Fc1ccc2c(c1)OCc1c(-c3nc(C4CCCC4)no3)ncn1-2,134 to 135 °C
22,CC12CCC(OS(=O)(=O)C(F)(F)F)=CC1=CCC1C2CCC2(C)C(C(=O)O)CCC12 (centres undefined),140 to 150 °C
23,Brc1ccc2c(c1)C(c1ccccn1)=NCc1nnc(Br)n1-2,236 to 238 °C
24,COc1cc2c(cc1Cl)C(O)(c1ccccc1Cl)C(=O)N2 (centres undefined),237 to 240 °C
25,O=C(Nc1ccccc1)OCC1c2ccccc2-c2ccccc21,243 to 244 °C
26,CCCCOc1c(CO)n(CC(C)C)c(=O)c2ccc(OCc3ccccc3)cc12,90 to 91 °C
27,COC(=O)c1ccc(NCc2cccc(F)c2)cc1,107 to 110 °C

# The remaining lines, values ahead:
row,melting point,SMILES
1,82 to 83 °C,CC(=O)c1sc(N2CCN(CCC3CC3)C2=O)nc1C
2,76.5 to 77.6 °C,CCn1nc(-c2ccc(OC)cc2)cc(C(=O)OC)c1=O
3,38 to 40 °C,OCCOc1cncc(Cl)c1
4,172 to 177 °C,CN1CCN(C(=S)Cc2ccc(S(C)(=O)=O)cc2)CC1
5,> 260 °C,CCOC(=O)c1c(Cl)nc2ccccc2c1CCl
6,240 to 241 °C,COC(=O)C1=C(C)Nc2[nH]nc(-c3ccccc3)c2C1c1cccc([N+](=O)[O-])c1 (centres undefined)
7,71 to 72 °C,CCCn1nc(-c2ccc(OC(=O)CC(C)(C)C)cc2)c2cccc(Cl)c21
8,127 to 128 °C,Oc1ccc(-c2nnc(CSCCOc3ccccc3)s2)cc1
9,97 to 98.5 °C,COc1cc(C=O)cc(Cl)c1Cl
10,154 to 157 °C,CCOC(=O)CCNC(=O)CCNC(=O)c1csc(NC(=N)N)n1
11,195 °C,O=C1c2cccc(NC(=S)Nc3ccccn3)c2C2CCCCN12 (centres undefined)
12,> 250 °C,CCc1nc2c(N)nc3ccccc3c2n1CCCS(C)(=O)=O
13,47.1 °C,COC(=O)c1ccc(Cl)c(CSC)c1SC
14,78 °C,CC1(C)COc2cc(C(F)(F)F)ccc2C(O)(c2ccccn2)C1 (centres undefined)
15,60 to 62 °C,CCN(CCO[N+](=O)[O-])C(=O)COC(=O)c1cc(S(N)(=O)=O)c(Cl)cc1NCc1ccco1
16,102 °C,CCOC(=O)C1(Cl)Oc2c(cc(C(=O)c3ccccc3F)c(OC)c2C)C1Cl (centres undefined)
17,100 °C,CCCCCCCCCCCC(=O)N1CCc2nc3ccccc3c(C)c2CC1
18,196 to 199 °C,Cc1c[nH]c(-c2ccc(OCC(O)CO)cc2)n1 (centres undefined)
19,200 °C,Nc1ncnc2c1ncn2COCCO
20,212 to 216 °C,CC(c1oc2ccccc2c(=O)c1-c1ccccc1)n1nc(-c2cccc(O)c2)c2c(N)ncnc21 (centres undefined)
21,163 to 166 °C,NC(=O)N1CC(OCc2cccc(Cl)c2)C1
22,154 to 155 °C,CC(C(=O)O)c1ccc(-n2cc(Br)cn2)cc1 (centres undefined)
23,232 to 233 °C,COc1ccc(-c2nc3nccnc3[nH]2)c(OCC#N)c1
24,237 to 238 °C,Nc1nc2ccccc2c2c1nc(CCO)n2CC1(O)CCOCC1
25,179 to 180 °C,COCCNS(=O)(=O)c1cccc(Nc2nccc(-c3sc(N)nc3C)n2)c1

row,melting point,SMILES
1,202 to 206 °C,CN1CCN(C2=Nc3ccccc3Nc3ccsc32)CC1
2,131 °C,Cc1ccsc1C(C)N(O)C(N)=O (centres undefined)
3,163 to 164 °C,Cc1cc(=O)[nH]c(SCc2ccc(Br)cc2N(C)C)n1
4,223 to 225 °C,COc1ccc2c(c1)Sc1c(cc(OC)c(OC)c1Br)N2
5,246 to 248 °C,Cc1nc2c(C(=O)NC(C)(C(N)=O)C(C)C)cc(C(=O)O)cc2n1C (centres undefined)
6,176 °C,OC1(CNc2nc3ccccc3s2)CCN(CC2COc3ccccc3O2)CC1 (centres undefined)
7,200 to 201 °C,CNC1=NS(=O)(=O)N=C1NCCSCc1csc(N)n1
8,111 to 113 °C,CCOC(=O)c1cc(CBr)cc(C(=O)OCC)c1
9,99 to 100 °C,COc1cccc(N(C)C(=S)Oc2ccc3c(c2)CCCC3)n1
10,97 °C,CC1=C(C(=O)OCOC(=O)C(C)(C)C)N2C(=O)C(NC(=O)OC(C)(C)C)C2SC1 (centres undefined)
11,105 °C,COC(=O)c1cc(-c2ccc(C)cc2)n(Cc2ccc(Cl)cc2Cl)n1
12,209 to 213 °C,Cc1nc(N)c(C(N)=S)s1
13,111 to 113 °C,CNC(=O)c1cc(-c2ccc(OC)c(OC)c2)nn(CC(C)C)c1=O
14,113 to 115 °C,CCCCCN1C(=O)C2CC2(c2ccc(N)cc2)C1=O (centres undefined)
15,103 to 106 °C,Nc1ccc(C2CCSCC2)cc1
16,> 230 °C,CC(C)NC1=NS(=O)(=O)c2cc(Cl)cc(N)c2N1
17,88 to 90 °C,Cc1ccc(C(=O)CC(=O)OC(C)(C)C)c(O)c1
18,128 to 131 °C,COc1ccc(Cc2oc3ccc(O)cc3c2C)cc1
19,262 °C,CCOC(=O)c1c(N2CCN(C(=O)c3cccs3)CC2)c2cc(F)cnc2n(CC(=O)c2ccccc2)c1=O
20,122 to 125 °C,COC(=O)C(Oc1ccc(Cl)cc1)c1ccc(I)cc1 (centres undefined)
21,169 to 170 °C,O=C(NC1CCCC1)c1ccc2nonc2c1
22,254 to 256 °C,COc1cc(C(=O)O)c2oc(-c3ccc(OC)c(F)c3)cc2c1
23,105 to 108 °C,CCOC(=O)N(c1cccc(C(F)(F)F)c1)c1ccccc1N
24,158 to 160 °C,CCNC(=O)NC(N)=O
25,158 °C,O[C@@H]1CN=C(c2cccs2)O[C@H]1c1ccccc1 (racemic)
